# Publication PMC9501810, “Bitter Peptides YFYPEL, [sequence], and [sequence], Released during Gastric Digestion of Casein, Stimulate Mechanisms of Gastric Acid Secretion via Bitter Taste Receptors TAS2R16 and TAS2R38” (Journal of Agricultural and Food Chemistry, 2022)
# Where “and” joins values, the source holds several entries; their conditions need not be identical. Equal entries are not always repeated.
# Tests used:
# [1] = test system: TAS2R19; experiment: RT-qPCR gene expression of TAS2R19 in HGT-1 cells; assay type: cell-based, human; settings: VAPFPEVF 17.5 µM, YFYPEL 0.03 µM, YQEPVLGPVRGPFPIIV 0.4 µM, normalized to PPIA and GAPDH and untreated cells, mean, n = 3–5
# Protocol: (§1) For mRNA expression analysis, 800,000 cells were seeded in a T25 cell culture flask (25 cm^2) 1 day before the experiment. After incubation with 17.5 μM […], 0.03 μM YFYPEL, or 0.4 μM […] for 15, 30, 60, and 120 min, RNA was isolated using the peqGOLD RNA Kit (VWR Peqlab, USA) following the manufacturer’s protocol. Determination of RNA concentration (A260/A280 between 2.03 and 2.09) was performed on a NanoDrop One^c (Thermo Fisher Scientific Inc., USA). RNA integrity number (RIN 9.9–10.0, version 2.6, assay class Eukaryote Total RNA Nano) was analyzed using a 2100 Bioanalyzer (Agilent Technologies, USA). Removal of gDNA and synthesis of cDNA were performed using the iScript gDNA Clear cDNA Synthesis Kit (BioRad, Feldkirchen, Germany) following the manufacturer’s protocol. Real-time-qPCR (RT-qPCR) was performed with 50 ng cDNA amplified with SsoAdvanced Universal SYBR Green Supermix (Bio-Rad Laboratories, Inc., USA). The sequences of the forward and reverse primers of the 25 TAS2Rs were taken from Liszt et al.([13]) (Supporting Information Table-SI 3). Verified primers for the TAS1Rs (TAS1R1: qHsaCID0013443; TAS1R2: qHsaCID0016106; TAS1R3: qHsaCED0002321) and for MAPK1 (qHsaCEP0050000) were obtained from Bio-Rad Laboratories. PPIA[37] and GAPDH[38] were used as reference genes. The effects of the peptides on gene expression were analyzed in comparison to untreated control cells.
# [2] = test system: TAS2R8; experiment: RT-qPCR gene expression of TAS2R8 in HGT-1 cells; assay type: cell-based, human; settings: VAPFPEVF 17.5 µM, YFYPEL 0.03 µM, YQEPVLGPVRGPFPIIV 0.4 µM, normalized to PPIA and GAPDH and untreated cells, mean, n = 3–5
# Protocol: as §1
# [3] = test system: TAS2R41; experiment: RT-qPCR gene expression of TAS2R41 in HGT-1 cells; assay type: cell-based, human; settings: VAPFPEVF 17.5 µM, YFYPEL 0.03 µM, YQEPVLGPVRGPFPIIV 0.4 µM, normalized to PPIA and GAPDH and untreated cells, mean, n = 3–5
# Protocol: as §1
# [4] = test system: TAS2R16; experiment: Proton secretion assay in TAS2R16 knock-down vs mock-transfected HGT-1 cells; assay type: cell-based, human; settings: TAS2R16kd vs mock-transfected HGT-1 cells, VAPFPEVF 17.5 µM, YFYPEL 0.03 µM, YQEPVLGPVRGPFPIIV 0.4 µM, 10 min, mean ± SEM; for decrease of the peptide-induced increase in proton secretion activity in TAS2R16kd cells: 72 h after 10 nM siRNA; for change of peptide-induced proton secretion, TAS2R16kd (Figure 5B–D): negative = reduction
# Protocol: The measurement of proton secretion from HGT-1 cells represents a well-established model for the identification of bitter compounds. By affecting extraoral bitter taste receptors with bitter compounds, a modulatory effect on proton secretion can be measured. For this purpose, cells were washed with KRHB and incubated with 3 μM of the intracellular pH indicator 1,5 carboxy-seminaphto-rhodafluor acetoxymethyl ester (SNARF-1-AM) under standard conditions. After 30 min, the cells were washed again with KRHB and then incubated with casein (0.01–10 μM equimolar related to the relevant forms αS1- and β-casein), hydrolysate (0.01–10 μM), or the peptides (0.01–200 μM). […] All substances were dissolved and diluted in KRHB. 1 mM histamine was used as a positive control. Measurements were performed using FlexStation 3 (Molecular Devices, USA). The excitation wavelength was 488 nm, and the emission wavelengths were 580 and 640 nm. For calibration (pH range 7.0–8.0), the intracellular and extracellular pH was adjusted with 2 μM nigericin in potassium buffer (20 mM NaCl, 110 mM KCl, 1 mM CaCl2, 1 mM MgSO4, 18 mM D-glucose, and 20 mM HEPES). The intracellular proton index (IPX) was calculated as the log2 value of the 580/640 ratio and compared with cells without treatment. Negative values represent increased secretion of protons and therefore stimulation of mechanisms regulating gastric acid secretion in HGT-1 cells. In contrast, positive values represent an inhibition of secretion compared to the untreated control.
# Expression of TAS2R16 and TAS2R38 was reduced by treatment of HGT-1 cells with siRNA. 100,000 cells per well were seeded 1 day before the experiment into a 24-well plate. All reagents and siRNA were purchased from Thermo Fisher Scientific, USA (cytotoxicity was excluded by MTT). Transfection was performed with Lipofectamine RNAiMAX in Opti-Medium according to the manufacturer’s protocol. 1–50 nM of different siRNA sequences (HSS121396 and HSS181763 for TAS2R16 and HSS108754 and HSS108756 for TAS2R38) and three different incubation times (24, 48, and 72 h) were tested. Mock control experiments were performed analogously with 1 or 10 nM Stealth RNAi siRNA negative control. To verify the functionality of the transfection process, verified 10 nM siRNA targeting MAPK1 (VHS40312) was used (positive control). The transfection rate was checked by qPCR as described in section 2.11. For the proton secretion assays, 20,000 cells per well were seeded 1 day before transfection into a black 96-well plate. After 72 h of transfection, proton secretion activities of TAS2R16 knock-down or TAS2R38 knock-down HGT-1 were compared with the mock transfected cells by means of ΔIPX.
# [5] = test system: MUC5AC; settings: human intestinal cells; cited from earlier work
# Text: (§2) In addition, transport through Caco-2 cell monolayers was ...
# [6] = test system: TAS2R42; experiment: RT-qPCR gene expression of TAS2R42 in HGT-1 cells; assay type: cell-based, human; settings: VAPFPEVF 17.5 µM, YFYPEL 0.03 µM, YQEPVLGPVRGPFPIIV 0.4 µM, normalized to PPIA and GAPDH and untreated cells, mean, n = 3–5
# Protocol: as §1
# [7] = test system: TAS2R13; experiment: RT-qPCR gene expression of TAS2R13 in HGT-1 cells; assay type: cell-based, human; settings: VAPFPEVF 17.5 µM, YFYPEL 0.03 µM, YQEPVLGPVRGPFPIIV 0.4 µM, normalized to PPIA and GAPDH and untreated cells, mean, n = 3–5
# Protocol: as §1
# [8] = test system: angiotensin-converting-enzyme; set-up: method as in PMID 8201050; settings: cited from earlier work
# Text: as §2
# [9] = cited from earlier work
# Text: as §2
# [10] = test system: Caco-2 cell monolayers; settings: cited from earlier work
# Text: as §2
# [11] = set-up: method as in PMID 1427989; settings: cited from earlier work
# Text: as §2
substance,measurement,setting,value
YFYPEL [bitter casein peptide αS1-CN144–149],change in gene expression of TAS2R19,[1]; incubation 15 min,1.60 fold change
same,change in gene expression of TAS2R19,[1]; incubation 30 min,0.82 fold change
same,change in gene expression of TAS2R19,[1]; incubation 60 min,0.79 fold change
same,change in gene expression of TAS2R19,[1]; incubation 120 min,1.05 fold change
same,change in gene expression of TAS2R8,[2]; incubation 15 min,1.62 fold change
same,change in gene expression of TAS2R8,[2]; incubation 30 min,1.90 fold change
same,change in gene expression of TAS2R8,[2]; incubation 60 min,1.87 fold change
same,change in gene expression of TAS2R8,[2]; incubation 120 min,1.69 fold change
same,change in gene expression of TAS2R41,[3]; incubation 15 min,2.82 fold change
same,change in gene expression of TAS2R41,[3]; incubation 30 min,1.56 fold change
same,change in gene expression of TAS2R41,[3]; incubation 60 min,4.58 fold change
same,change in gene expression of TAS2R41,[3]; incubation 120 min,3.00 fold change
same,decrease of the peptide-induced increase in proton secretion activity in TAS2R16kd cells,[4],86.3 ± 9.9%
same,"change of peptide-induced proton secretion, TAS2R16kd (Figure 5B–D)",[4],-86.3 ±9.9%
same,effect on expression of MUC5AC,[5],increase the expression of MUC5AC
same,change in gene expression of TAS2R42,[6]; incubation 15 min,1.17 fold change
same,change in gene expression of TAS2R42,[6]; incubation 30 min,0.55 fold change
same,change in gene expression of TAS2R42,[6]; incubation 60 min,0.69 fold change
same,change in gene expression of TAS2R42,[6]; incubation 120 min,0.93 fold change
same,change in gene expression of TAS2R13,[7]; incubation 15 min,1.14 fold change
same,change in gene expression of TAS2R13,[7]; incubation 30 min,0.53 fold change
same,change in gene expression of TAS2R13,[7]; incubation 60 min,0.78 fold change
same,change in gene expression of TAS2R13,[7]; incubation 120 min,0.88 fold change
YQEPVLGPVRGPFPIIV [bitter casein peptide βA1/A2-CN193–209],change in gene expression of TAS2R19,[1]; incubation 15 min,0.85 fold change
same,change in gene expression of TAS2R19,[1]; incubation 30 min,1.58 fold change
same,change in gene expression of TAS2R19,[1]; incubation 60 min,1.27 fold change
same,change in gene expression of TAS2R19,[1]; incubation 120 min,1.05 fold change
same,change in gene expression of TAS2R8,[2]; incubation 15 min,1.39 fold change
same,change in gene expression of TAS2R8,[2]; incubation 30 min,2.45 fold change
same,change in gene expression of TAS2R8,[2]; incubation 60 min,1.87 fold change
same,change in gene expression of TAS2R8,[2]; incubation 120 min,1.93 fold change
same,change in gene expression of TAS2R41,[3]; incubation 15 min,1.31 fold change
same,change in gene expression of TAS2R41,[3]; incubation 30 min,1.71 fold change
same,change in gene expression of TAS2R41,[3]; incubation 60 min,2.95 fold change
same,change in gene expression of TAS2R41,[3]; incubation 120 min,4.61 fold change and 4.61 ± 2.03 fold change
same,angiotensin-converting-enzyme inhibitory activity,[8],angiotensin-converting-enzyme inhibitory activity
same,decrease of the peptide-induced increase in proton secretion activity in TAS2R16kd cells,[4],76.6 ± 9.9%
same,"change of peptide-induced proton secretion, TAS2R16kd (Figure 5B–D)",[4],-76.6 ±9.9%
same,antimicrobial ability,[9],antimicrobial
same,transport through Caco-2 cell monolayers,[10],transport through Caco-2 cell monolayers was observed
same,change in gene expression of TAS2R42,[6]; incubation 15 min,0.62 fold change
same,change in gene expression of TAS2R42,[6]; incubation 30 min,1.38 fold change
same,change in gene expression of TAS2R42,[6]; incubation 60 min,1.18 fold change
same,change in gene expression of TAS2R42,[6]; incubation 120 min,0.94 fold change
same,change in gene expression of TAS2R13,[7]; incubation 15 min,0.70 fold change
same,change in gene expression of TAS2R13,[7]; incubation 30 min,1.65 fold change
same,change in gene expression of TAS2R13,[7]; incubation 60 min,1.16 fold change
same,change in gene expression of TAS2R13,[7]; incubation 120 min,1.31 fold change
same,immunomodulatory ability,[11],immunomodulatory abilities
VAPFPEVF [bitter casein peptide αS1-CN25–32],change in gene expression of TAS2R19,[1]; incubation 15 min,0.66 fold change
same,change in gene expression of TAS2R19,[1]; incubation 30 min,1.22 fold change
same,change in gene expression of TAS2R19,[1]; incubation 60 min,0.69 fold change
same,change in gene expression of TAS2R19,[1]; incubation 120 min,1.25 fold change
same,change in gene expression of TAS2R8,[2]; incubation 15 min,1.24 fold change
same,change in gene expression of TAS2R8,[2]; incubation 30 min,2.25 fold change
same,change in gene expression of TAS2R8,[2]; incubation 60 min,1.34 fold change
same,change in gene expression of TAS2R8,[2]; incubation 120 min,2.04 fold change
same,change in gene expression of TAS2R41,[3]; incubation 15 min,0.95 fold change
same,change in gene expression of TAS2R41,[3]; incubation 30 min,2.32 fold change
same,change in gene expression of TAS2R41,[3]; incubation 60 min,0.98 fold change
same,change in gene expression of TAS2R41,[3]; incubation 120 min,1.90 fold change
same,decrease of the peptide-induced increase in proton secretion activity in TAS2R16kd cells,[4],77.4 ± 10.1%
same,"change of peptide-induced proton secretion, TAS2R16kd (Figure 5B–D)",[4],-77.4 ±10.1%
same,change in gene expression of TAS2R42,[6]; incubation 15 min,0.52 fold change
same,change in gene expression of TAS2R42,[6]; incubation 30 min,0.88 fold change
same,change in gene expression of TAS2R42,[6]; incubation 60 min,0.71 fold change
same,change in gene expression of TAS2R42,[6]; incubation 120 min,1.20 fold change
same,change in gene expression of TAS2R13,[7]; incubation 15 min,0.44 fold change
same,change in gene expression of TAS2R13,[7]; incubation 30 min,1.28 fold change
same,change in gene expression of TAS2R13,[7]; incubation 60 min,1.01 fold change
same,change in gene expression of TAS2R13,[7]; incubation 120 min,1.92 fold change
